Laboratory results from US20070026408A1, “Materials and methods for analysis of atp-binding cassette transporter gene expression” (priority 2003, published 2007).
Where a name gives a salt, the structure may show the parent alone.

Tests used:
Settings in all cases: HepG2, doxorubicin HCl 25 nM, standard 11
abcA4 = assay: DT1 microarray drug screening, drug-treated HepG2: abcA4; assay type: cell-based, human
Experimental: (§1) The labelled cDNA target preparation was thawed and the 150 μl added to 850 ul hybridisation buffer (500 mM sodium Phosphate pH 6.0, 1% SDS, 1% BSA, 1 mM EDTA) in a 1.5 ml microtube and heated at 95° C. for 10 min.

abcF1 = assay: DT1 microarray drug screening, drug-treated HepG2: abcF1; assay type: cell-based, human
Experimental: as §1

abcG4 = assay: DT1 microarray drug screening, drug-treated HepG2: abcG4; assay type: cell-based, human
Experimental: as §1

abcC6 = assay: DT1 microarray drug screening, drug-treated HepG2: abcC6; assay type: cell-based, human
Experimental: as §1

abcB8 = assay: DT1 microarray drug screening, drug-treated HepG2: abcB8; assay type: cell-based, human
Experimental: as §1

abcC5 = assay: DT1 microarray drug screening, drug-treated HepG2: abcC5; assay type: cell-based, human
Experimental: as §1

abcB3 = assay: DT1 microarray drug screening, drug-treated HepG2: abcB3; assay type: cell-based, human
Experimental: as §1

abcB1 = assay: DT1 microarray drug screening, drug-treated HepG2: abcB1; assay type: cell-based, human
Experimental: as §1

abcC10 = assay: DT1 microarray drug screening, drug-treated HepG2: abcC10; assay type: cell-based, human
Experimental: as §1

abcC7 = assay: DT1 microarray drug screening, drug-treated HepG2: abcC7; assay type: cell-based, human
Experimental: as §1

abcC12 = assay: DT1 microarray drug screening, drug-treated HepG2: abcC12; assay type: cell-based, human
Experimental: as §1

abcC2 = assay: DT1 microarray drug screening, drug-treated HepG2: abcC2; assay type: cell-based, human
Experimental: as §1

abcC9 = assay: DT1 microarray drug screening, drug-treated HepG2: abcC9; assay type: cell-based, human
Experimental: as §1

abcC11 = assay: DT1 microarray drug screening, drug-treated HepG2: abcC11; assay type: cell-based, human
Experimental: as §1

abcB11 = assay: DT1 microarray drug screening, drug-treated HepG2: abcB11; assay type: cell-based, human
Experimental: as §1

abcF2 = assay: DT1 microarray drug screening, drug-treated HepG2: abcF2; assay type: cell-based, human
Experimental: as §1

abcC3 = assay: DT1 microarray drug screening, drug-treated HepG2: abcC3; assay type: cell-based, human
Experimental: as §1

abcB10 = assay: DT1 microarray drug screening, drug-treated HepG2: abcB10
abcC8 = assay: DT1 microarray drug screening, drug-treated HepG2: abcC8; assay type: cell-based, human
Experimental: as §1

abcC13 = assay: DT1 microarray drug screening, drug-treated HepG2: abcC13; assay type: cell-based, human
Experimental: as §1

abcA12 = assay: DT1 microarray drug screening, drug-treated HepG2: abcA12; assay type: cell-based, human
Experimental: as §1

abcB7 = assay: DT1 microarray drug screening, drug-treated HepG2: abcB7; assay type: cell-based, human
Experimental: as §1

abcB6 = assay: DT1 microarray drug screening, drug-treated HepG2: abcB6; assay type: cell-based, human
Experimental: as §1

abcA2 = assay: DT1 microarray drug screening, drug-treated HepG2: abcA2; assay type: cell-based, human
Experimental: as §1

COc1cccc2c1C(=O)c1c(O)c3c(c(O)c1C2=O)C[C@@](O)(C(=O)CO)C[C@@H]3O[C@H]1C[C@H](N)[C@H](O)[C@H](C)O1 [dox, doxorubicin HCl]
relative level of abcA4 gene expression (abcA4; 4 h): 4.535
relative level of abcA4 gene expression (abcA4; 8 h): 6.099
relative level of abcF1 gene expression (abcF1; 2 h): 2.485
relative level of abcF1 gene expression (abcF1; 4 h): 2.87
relative level of abcF1 gene expression (abcF1; 8 h): 2.662
relative level of abcG4 gene expression (abcG4; 2 h): 9.59
relative level of abcG4 gene expression (abcG4; 4 h): 5.309
relative level of abcG4 gene expression (abcG4; 8 h): 6.271
relative level of abcC6 gene expression (abcC6; 2 h): 7.696
relative level of abcC6 gene expression (abcC6; 4 h): 4.516
relative level of abcC6 gene expression (abcC6; 8 h): 4.899
relative level of abcB8 gene expression (abcB8; 2 h): 8.004
relative level of abcB8 gene expression (abcB8; 4 h): 5.438
relative level of abcB8 gene expression (abcB8; 8 h): 5.353
relative level of abcC5 gene expression (abcC5; 2 h): 10.51
relative level of abcC5 gene expression (abcC5; 4 h): 6.29
relative level of abcC5 gene expression (abcC5; 8 h): 6.522
relative level of abcB3 gene expression (abcB3; 2 h): 6.838
relative level of abcB3 gene expression (abcB3; 4 h): 4.325
relative level of abcB3 gene expression (abcB3; 8 h): 4.813
relative level of abcB1 gene expression (abcB1; 2 h): 6.735
relative level of abcB1 gene expression (abcB1; 4 h): 3.865
relative level of abcB1 gene expression (abcB1; 8 h): 4.759
relative level of abcC10 gene expression (abcC10; 2 h): 5.151
relative level of abcC10 gene expression (abcC10; 4 h): 3.335
relative level of abcC10 gene expression (abcC10; 8 h): 3.633
relative level of abcC7 gene expression (abcC7; 2 h): 7.481
relative level of abcC7 gene expression (abcC7; 4 h): 4.5794
relative level of abcC7 gene expression (abcC7; 8 h): 5.093
relative level of abcC12 gene expression (abcC12; 2 h): 5.226
relative level of abcC12 gene expression (abcC12; 4 h): 3.532
relative level of abcC12 gene expression (abcC12; 8 h): 3.976
relative level of abcC2 gene expression (abcC2; 2 h): 0.6141
relative level of abcC2 gene expression (abcC2; 4 h): 0.3603
relative level of abcC2 gene expression (abcC2; 8 h): 0.3548
relative level of abcC9 gene expression (abcC9; 2 h): 5.598
relative level of abcC9 gene expression (abcC9; 4 h): 3.678
relative level of abcC9 gene expression (abcC9; 8 h): 3.982
relative level of abcC11 gene expression (abcC11; 2 h): 7.608
relative level of abcC11 gene expression (abcC11; 4 h): 4.384
relative level of abcC11 gene expression (abcC11; 8 h): 5.056
relative level of abcB11 gene expression (abcB11; 2 h): 5.31
relative level of abcB11 gene expression (abcB11; 4 h): 3.404
relative level of abcB11 gene expression (abcB11; 8 h): 3.888
relative level of abcF2 gene expression (abcF2; 2 h): 5.979
relative level of abcF2 gene expression (abcF2; 4 h): 4.068
relative level of abcF2 gene expression (abcF2; 8 h): 4.807
relative level of abcC3 gene expression (abcC3; 2 h): 7.156
relative level of abcC3 gene expression (abcC3; 4 h): 4.014
relative level of abcC3 gene expression (abcC3; 8 h): 4.2
relative level of abcB10 gene expression (abcB10; 2 h): 2.116
relative level of abcB10 gene expression (abcB10; 4 h): 1.484
relative level of abcB10 gene expression (abcB10; 8 h): 1.542
relative level of abcC8 gene expression (abcC8; 2 h): 0.3229
relative level of abcC8 gene expression (abcC8; 4 h): 0.2437
relative level of abcC8 gene expression (abcC8; 8 h): 0.2255
relative level of abcC13 gene expression (abcC13; 2 h): 3.203
relative level of abcC13 gene expression (abcC13; 4 h): 2.548
relative level of abcC13 gene expression (abcC13; 8 h): 2.593
relative level of abcA12 gene expression (abcA12; 2 h): 5.829
relative level of abcA12 gene expression (abcA12; 4 h): 3.419
relative level of abcA12 gene expression (abcA12; 8 h): 4.195
relative level of abcB7 gene expression (abcB7; 2 h): 0.2622
relative level of abcB7 gene expression (abcB7; 4 h): 0.1619
relative level of abcB7 gene expression (abcB7; 8 h): 0.1766
relative level of abcB6 gene expression (abcB6; 2 h): 5.174
relative level of abcB6 gene expression (abcB6; 4 h): 3.283
relative level of abcB6 gene expression (abcB6; 8 h): 3.612
relative level of abcA2 gene expression (abcA2; 2 h): 6.224
relative level of abcA2 gene expression (abcA2; 4 h): 2.947
relative level of abcA2 gene expression (abcA2; 8 h): 4.022
